Data: patent US8461206B2, “Use of at least one (dihydro)jasmonic acid derivative for treating dry skin” (L'Oreal, priority 2003, dated 2013)

Assays:
Assay type in all cases: cell-based
[1] = test system: immortalized human sebocytes derived from the SZ95 line; assay: cell viability (LDH) assay; details: in parallel to the lipogenesis test
[2] = test system: immortalized human sebocytes derived from the SZ95 line; assay: lipogenesis in immortalized human sebocytes in culture (Nile Red fluorescence); details: 10^-4 M, 0.1% DMSO, treatment for 48 hours, Nile Red 1 μg/ml, cells at confluence, p<0.001
Method: Methyl dihydrojasmonate (provided by BEDOUKIAN) was tested on a model of immortalized human sebocytes in culture, derived from the SZ95 line described in Zouboulis, C. C., Seltmann, H., Neitzel, H. & Orfanos, C. E., Establishment and Characterization of an Immortalized Human Sebaceous Gland Cell Line, J. Invest. Dermatol., 113, 1011-1020 (1999).
The test consisted in measuring the amount of lipids produced by the sebocytes of the line (at confluence), in the presence or absence of active agent diluted in DMSO, such that the final amount of DMSO in the culture medium was 0.1% and the amount of methyl dihydrojasmonate was 10^−4 M. After treatment for 48 hours, the adherent cells were treated with Nile Red (1 μg/ml). The lipid content was then quantified by measuring the fluorescence of the dye (two excitation/emission couples: 485-540 nm for the neutral lipids and 540-620 nm for the normeutral lipids). The results were given for the total lipids (combination of the two measurements).
The experiment was carried out in sextuplicate (assayed products and control) in a 96-well plate, and repeated four times.

[3] = test system: immortalized human sebocytes derived from the SZ95 line; assay: cell proliferation (MUH) assay; details: in parallel to the lipogenesis test

For `CCCCCC1C(=O)CCC1CC(=O)OC` (stereo not drawn) [methyl dihydrojasmonate], the “modification of cell viability (LDH)” value [1] was “not related to a modification”, the “increase in amount of neutral lipids synthesized by the sebocytes compared to the untreated control” value [2] was 98% and the “modification of cell proliferation (MUH)” value [3] was “not related to a modification”.
